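Briefly, cells in 96-well plates were exposed to five compound concentrations for 48 h, and endpoints were estimated by linear interpolation. TGI denotes the concentration required for complete inhibition of growth.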
Tests used:
Assay in all cases: inhibition of tumour cell growth, NCI panel, 48 h
CAKI-1 renal = tested on: CAKI-1 renal
TK-10 renal = tested on: TK-10 renal
RPMI-8226 leukemia = tested on: RPMI-8226 leukemia
NCI-H460 lung = tested on: NCI-H460 lung
EKVX NSCLC = tested on: EKVX NSCLC
HCT-116 colon = tested on: HCT-116 colon
MALME-3M melanoma = tested on: MALME-3M melanoma
HOP-62 NSCLC = tested on: HOP-62 NSCLC
SNB-75 CNS = tested on: SNB-75 CNS
SF-539 CNS = tested on: SF-539 CNS
K-562 leukemia = tested on: K-562 leukemia
SK-MEL-5 melanoma = tested on: SK-MEL-5 melanoma
UACC-257 melanoma = tested on: UACC-257 melanoma
MDA-N = tested on: MDA-N
BT-549 breast = tested on: BT-549 breast

Structure (SMILES) | TGI (CAKI-1 renal) | TGI (TK-10 renal) | TGI (RPMI-8226 leukemia) | TGI (NCI-H460 lung) | TGI (EKVX NSCLC) | TGI (HCT-116 colon) | TGI (MALME-3M melanoma) | TGI (HOP-62 NSCLC) | TGI (SNB-75 CNS) | TGI (SF-539 CNS) | TGI (K-562 leukemia) | TGI (SK-MEL-5 melanoma) | TGI (UACC-257 melanoma) | TGI (MDA-N) | TGI (BT-549 breast)
Cn1cc2ccccc2c1-c1nc(F)nc(F)n1 | > 100 µM | > 100 µM | 90.5 µM | > 100 µM | > 100 µM | > 100 µM | > 100 µM | > 100 µM | > 100 µM | > 100 µM | > 100 µM | > 100 µM |  |  | 
C=Cc1ccc(C)[n+](C[Si](C)(C)O[Si](C)(C)C)c1 | > 100 µM |  | > 100 µM |  | > 100 µM | > 100 µM | > 100 µM | > 100 µM | > 100 µM | > 100 µM | > 100 µM | > 100 µM | > 100 µM |  | 
COC1(OC)c2no[n+]([O-])c2CCC1O (configuration not stated) | > 100 µM | > 100 µM | > 100 µM | > 100 µM | > 100 µM | > 100 µM | > 100 µM | > 100 µM |  | > 100 µM | > 100 µM | > 100 µM | > 100 µM | > 100 µM | 
COC(=O)N/N=C(\Cc1ccccc1)CN(C)C |  | > 100 µM | > 100 µM | > 100 µM | > 100 µM | > 100 µM | > 100 µM | > 100 µM | > 100 µM | > 100 µM | > 100 µM | > 100 µM | > 100 µM |  | 
O=C1/C(=C/c2ccccc2O)N=C(c2ccccc2)N1C1Nc2cc3c(cc2S1)NC(N1C(=O)/C(=C/c2ccccc2O)N=C1c1ccccc1)S3 (configuration not stated) | > 100 µM | > 100 µM | > 100 µM | > 100 µM | > 100 µM | > 100 µM |  | > 100 µM |  | > 100 µM | > 100 µM | > 100 µM | > 100 µM | > 100 µM | 
Cc1csc2[n+]1C(=O)/C(=C\c1ccc([N+](=O)[O-])cc1)S2 | 56.4 µM | 58.8 µM | > 100 µM | 41.9 µM |  | 38.7 µM |  | 82.2 µM | 57.1 µM | > 100 µM | > 100 µM | 55 µM | > 100 µM | 75.2 µM | 
COC(=O)C(=O)C(C(=O)C(=O)Nc1ccc(F)cc1)c1nc2ccc([N+](=O)[O-])cc2[nH]c1=O (configuration not stated) | > 100 µM | > 100 µM | > 100 µM | > 100 µM | > 100 µM | > 100 µM | > 100 µM | > 100 µM | > 100 µM | > 100 µM | > 100 µM | > 100 µM | > 100 µM |  | 
COc1ccc(Nc2nnc(-c3nsc4ccccc34)s2)cc1 | > 100 µM | > 88.5 µM | > 100 µM | > 65.9 µM | > 100 µM | 45.2 µM |  | 36.1 µM | 17.3 µM | > 100 µM | > 100 µM | > 100 µM | > 100 µM | > 100 µM | 
COC(=O)[C@@H]1CN(C(C)=O)C(=O)N1 | > 100 µM | > 100 µM | > 100 µM | > 100 µM | > 100 µM | > 100 µM | > 100 µM | > 100 µM | > 100 µM | > 100 µM | > 100 µM | > 100 µM | > 100 µM | > 100 µM | 
C/C(=N\NS(=O)(=O)c1ccc(C)cc1)C(CN1CCCCC1)C(c1ccccc1)c1c(O)c2ccccc2oc1=O (configuration not stated) | > 100 µM | > 100 µM | > 100 µM | > 100 µM | > 100 µM | > 100 µM | > 100 µM | > 100 µM | > 100 µM | > 100 µM | > 100 µM | > 100 µM | > 100 µM |  | 
CCSc1[nH]c(NC(=S)NC(=O)c2ccccc2Cl)c(C(N)=O)c1C(N)=O | > 10 µM | > 10 µM | > 10 µM |  | > 10 µM |  | > 10 µM | > 10 µM | > 10 µM |  | > 10 µM | > 10 µM | > 10 µM | > 10 µM | 
CCOC(=O)c1cccn1S(=O)(=O)c1cc(Cl)ccc1NC(=O)CC | > 100 µM | > 100 µM | > 100 µM | > 100 µM | > 100 µM | > 100 µM |  | > 100 µM | > 100 µM | > 100 µM | > 100 µM | > 100 µM | > 100 µM |  | > 100 µM
Cn1c(=O)c(Br)c(C=O)n(CCO[N+](=O)[O-])c1=O |  | 15.7 µM | 7.42 µM | 31.5 µM | 7.07 µM | 16.1 µM |  | 37.5 µM | 27 µM | 32.8 µM | 8.82 µM | 23.9 µM |  | 17.3 µM | 
CCCCOC(=O)C1C2CCC(O2)C1C(=O)OCCCC (configuration not stated) | > 100 µM | > 100 µM | > 68.5 µM | > 47.1 µM | > 100 µM | > 65.1 µM | > 100 µM | > 100 µM | > 100 µM | > 100 µM | > 100 µM | > 100 µM | > 92.2 µM |  | 
COc1cc2c(oc(=O)c3c4oc([Si](C)(C)C)cc4cc(OC)c23)c2cccc(OCc3ccccc3)c12 | 41.2 µM | > 66.8 µM | > 87 µM | > 100 µM | > 100 µM | > 100 µM | > 71.5 µM | 47.6 µM | 48 µM | 56.5 µM | > 100 µM | > 100 µM | > 100 µM |  | 
c1ccc2c(c1)cc(C1NCCc3[nH]cnc31)c1ccccc12 (configuration not stated) | > 100 µM | > 100 µM | > 78.4 µM | > 53.6 µM | > 100 µM | 42.7 µM | > 100 µM | > 88.6 µM | > 100 µM | > 59.9 µM | 41.1 µM | > 69.8 µM | > 68.3 µM |  | 
C[C@]12CCC(=O)C=C1CC[C@@H]1[C@@H]2CC[C@]2(C)C(=O)NC(=O)C[C@@H]12 | > 100 µM | > 100 µM | > 100 µM | > 100 µM | > 100 µM | > 100 µM | > 100 µM | > 100 µM | > 100 µM | > 100 µM | > 100 µM | > 100 µM | > 100 µM |  | 
